Molecular target: T1, human V1a receptor (Homo sapiens, UniProt P37288)
T1 construct: expressed in transfected cells; host or cells: HEK293 cells, transiently transfected; cell membranes
Assay: human V1a receptor binding studies (3H-Vasopressin SPA, HEK293 cell membranes)
Conditions: competition with 3H-Vasopressin on membranes of HEK293 cells transiently transfected with human V1a receptor; Ki by Cheng-Prussoff equation; read-out: pKi (hV1a) (converted)
Experimental: The human V1a receptor was cloned by RT-PCR from total human liver RNA. The coding sequence was subcloned in an expression vector after sequencing to confirm the identity of the amplified sequence. […] Cell membranes were prepared from HEK293 cells transiently transfected with the expression vector and grown in 20 liter fermenters with the following protocol.
50 g of cells are re-suspended in 30 ml freshly prepared ice cold Lysis buffer (50 mM HEPES, 1 mM EDTA, 10 mM MgCl2 adjusted to pH= 7.4 + complete cocktail of protease inhibitor (Roche Diagnostics)). Homogenized with Polytron for Imin and sonicated on ice for 2x 2 minutes at 80% intensity (Vibracell sonicator). The preparation is centrifuged 20 min at 500 g at 4° C., the pellet is discarded and the supernatant centrifuged 1 hour at 43 ′000g at 4° C. (19 ′000rpm). The pellet is re-suspended in 12.5 ml Lysis buffer+12.5 ml Sucrose 20% and homogenized using a Polytron for 1-2 min. The protein concentration is determined by the Bradford method and aliquots are stored at -80° C. until use. For binding studies 60 mg Yttrium silicate SPA beads (Amersham) are mixed with an aliquot of membrane in binding buffer (50 mM Tris, 120 mM NaCl, 5 mM KCl, 2 mM CaCl2, 10 mM MgCl2) for 15 minutes with mixing. 50 µl of bead/membrane mixture is then added to each well of a 96 well plate, followed by 50 µl of 4 nM 3H-Vasopressin (American Radiolabeled Chemicals). For total binding measurement 100 µl of binding buffer are added to the respective wells, for non-specific binding 100 µl of 8.4 mM cold vasopressin and for compound testing 100 µl of a serial dilution of each compound in 2% DMSO. The plate is incubated 1 h at room temperature, centrifuged 1 min at 1000 g and counted on a Packard Top-Count. Non-specific binding counts are subtracted from each well and data is normalized to the maximum specific binding set at 100%. To calculate an IC50 the curve is fitted using a non-linear regression model (XLfit) and the Ki is calculated using the Cheng-Prussoff equation.

T1 sequence (P37288 whole entry): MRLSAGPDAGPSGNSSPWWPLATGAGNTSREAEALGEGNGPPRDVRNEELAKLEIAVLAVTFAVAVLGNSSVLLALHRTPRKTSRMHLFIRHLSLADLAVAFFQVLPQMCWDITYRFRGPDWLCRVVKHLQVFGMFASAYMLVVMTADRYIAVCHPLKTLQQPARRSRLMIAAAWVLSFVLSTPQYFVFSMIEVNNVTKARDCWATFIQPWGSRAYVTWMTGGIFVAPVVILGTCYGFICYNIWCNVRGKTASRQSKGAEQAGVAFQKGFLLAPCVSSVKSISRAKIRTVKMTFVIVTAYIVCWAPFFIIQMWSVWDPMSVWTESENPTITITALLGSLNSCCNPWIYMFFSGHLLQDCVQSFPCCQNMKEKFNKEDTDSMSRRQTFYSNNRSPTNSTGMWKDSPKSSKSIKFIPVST

Row | Compound | Ki [nM]
1 | Cc1cnc(O[C@H]2CC[C@H](c3nnc(C)n3-c3ccc(Cl)cc3)CC2)cn1 [Example 70, trans[4-[4-(4-Chlorophenyl)-5-methyl-1,2,4-triazol-3-yl]cyclohexyl]oxy-5-methylpyrazine] | 5.01
2 | Cc1nnc([C@H]2CC[C@H](Oc3ccccn3)CC2)n1-c1ccc(C(F)F)cc1 [Example 7, trans((4-(4-(4-(Difluoromethyl)phenyl)-5-methyl-4H-1,2,4-triazol-3-yl)cyclohexyl)oxy)pyridine] | 18.6
3 | Cc1cc(Cl)ccc1-n1cnnc1[C@H]1CC[C@H](Oc2ccccn2)CC1 [Example 53] | 0.891
4 | Cc1ccc(-n2cnnc2[C@H]2CC[C@H](Oc3ccccn3)CC2)c(C)c1 [Example 54, trans((4-(4-(2,4-Dimethylphenyl)-4H-1,2,4-triazol-3-yl)cyclohexyl)oxy)pyridine] | 2.19
5 | CSc1cc(Cl)ccc1-n1c(C)nnc1[C@H]1CC[C@H](Oc2ccccn2)CC1 [Example 14, trans[4-[4-(4-Chloromethylsulfanylphenyl)-5-methyl-1,2,4-triazol-3-yl]cyclohexyl]oxypyridine] | 1.58
6 | COc1cc(Cl)ccc1-n1c(C)nnc1[C@H]1CC[C@@H](Oc2ccccc2)CC1 [Example 2, cis(4-Chloro-2-methoxy-phenyl)-3-methyl-5-(4-phenoxy-cyclohexyl)-4H-[1,2,4]triazole] | 7.59
7 | Cc1ccc(O[C@H]2CC[C@H](c3nnc(C)n3-c3ccc(Cl)cc3)CC2)cn1 [Example 64] | 0.324
8 | Clc1ccc(-n2cnnc2[C@H]2CC[C@H](Oc3ccccn3)CC2)cc1 [Example 52, trans((4-(4-(4-Chlorophenyl)-4H-1,2,4-triazol-3-yl)cyclohexyl)oxy)pyridine] | 2.24
9 | Cc1nnc([C@H]2CC[C@H](Oc3ccccn3)CC2)n1-c1ccc(C#N)cc1 [Example 8, trans(3-Methyl-5-((1r,4r)(pyridin-2-yloxy)cyclohexyl)-4H-1,2,4-triazolyl)benzonitrile] | 38.9
10 | COCc1nnc([C@H]2CC[C@H](Oc3ccc(C)nc3)CC2)n1-c1ccc(Cl)cc1 [Example 67, trans[4-[4-(4-Chlorophenyl)(methoxymethyl)-1,2,4-triazol-3-yl]cyclohexyl]oxy-2-methylpyridine] | 0.661
11 | COCc1nnc([C@H]2CC[C@H](Oc3ccc(C)nc3)CC2)n1-c1ccc(C)cc1 [Example 66, trans[4-[5-(Methoxymethyl)-4-(4-methylphenyl)-1,2,4-triazol-3-yl]cyclohexyl]oxy-2-methylpyridine] | 3.47
12 | COCc1nnc([C@H]2CC[C@H](Oc3cnccn3)CC2)n1-c1ccc(C)cc1 [Example 68, trans[4-[5-(Methoxymethyl)-4-(4-methylphenyl)-1,2,4-triazol-3-yl]cyclohexyl]oxypyrazine] | 8.13
13 | Cc1nnc([C@H]2CC[C@H](Oc3ccccn3)CC2)n1-c1ccc(Cl)cn1 [Example 23] | 17
14 | COCc1nnc([C@H]2CC[C@H](Oc3cnccn3)CC2)n1-c1ccc(Cl)cc1 [Example 69, trans[4-[4-(4-Chlorophenyl)-5-(methoxymethyl)-1,2,4-triazol-3-yl]cyclohexyl]oxypyrazine] | 2.45
15 | Cc1nnc([C@H]2CC[C@H](Oc3ccccn3)CC2)n1-c1ncc(Cl)cc1F [Example 24, transChloro-3-fluoro-2-(3-methyl(4-(pyridin-2-yloxy)cyclohexyl)-4H-1,2,4-triazol-4-yl)pyridine] | 61.7
16 | Cc1ccc(-n2c(C)nnc2[C@H]2CC[C@H](Oc3ccccn3)CC2)cc1F [Example 20, trans((4-(4-(3-Fluoro-4-methylphenyl)-5-methyl-4H-1,2,4-triazol-3-yl)cyclohexyl)oxy)pyridine] | 1.82
17 | Cc1ccc(-n2c(C(F)F)nnc2[C@H]2CC[C@H](Oc3ccccn3)CC2)cc1 [Example 31, trans((4-(5-(Difluoromethyl)-4-(p-tolyl)-4H-1,2,4-triazol-3-yl)cyclohexyl)oxy)pyridine] | 3.39
18 | Cc1nnc([C@H]2CC[C@H](Oc3ccc(C(F)F)cn3)CC2)n1-c1ccc(Cl)cc1 [Example 60, trans((4-(4-(4-Chlorophenyl)-5-methyl-4H-1,2,4-triazol-3-yl)cyclohexyl)oxy)-5-(difluoromethyl)pyridine] | 2.29
19 | Cc1ccc(-n2c(C)nnc2[C@H]2CC[C@H](Oc3cnc(C)cn3)CC2)cc1 [Example 71, transMethyl-5-[4-[5-methyl-4-(4-methylphenyl)-1,2,4-triazol-3-yl]cyclohexyl]oxypyrazine] | 17.8
20 | Cc1ccc(-n2c(C)nnc2[C@H]2CC[C@H](Oc3ccc(C)cn3)CC2)cc1 [Example 57, transMethyl-2-[4-[5-methyl-4-(4-methylphenyl)-1,2,4-triazol-3-yl]cyclohexyl] oxypyridine] | 0.447
21 | Cc1nnc([C@H]2CC[C@H](Oc3ccccn3)CC2)n1-c1ccc(F)c(F)c1 [Example 21, trans((4-(4-(3,4-Difluorophenyl)-5-methyl-4H-1,2,4-triazol-3-yl)cyclohexyl)oxy)pyridine] | 7.08
22 | COCc1nnc([C@H]2CC[C@H](Oc3cnc(C)cn3)CC2)n1-c1ccc(Cl)cc1 [Example 72, trans[4-[4-(4-Chlorophenyl)-5-(methoxymethyl)-1,2,4-triazol-3-yl]cyclohexyl]oxy-5-methylpyrazine] | 2.95
23 | Cc1cc(Cl)ccc1-n1c(C)nnc1[C@H]1CC[C@H](Oc2ccccn2)CC1 [Example 13] | 0.269
24 | Cc1nnc([C@H]2CC[C@H](Oc3ccccn3)CC2)n1-c1ccc(Cl)cc1F [Example 12, trans((4-(4-(4-Chlorofluorophenyl)-5-methyl-4H-1,2,4-triazol-3-yl)cyclohexyl)oxy)pyridine] | 0.759

Next, values leading:

Row | Ki [nM] | Compound
25 | 32.4 | CN(C)CCOc1nnc([C@H]2CC[C@H](Oc3ccccn3)CC2)n1-c1ccc(Cl)cc1 [Example 51]
26 | 64.6 | C[S+]([O-])Cc1nnc([C@H]2CC[C@H](Oc3ccccn3)CC2)n1-c1ccc(Cl)cc1 (mixture of isomers) [Example 37, trans-(rac)-2-((4-(4-(4-Chlorophenyl)-5-((methylsulfinyl)methyl)-4H-1,2,4-triazol-3-yl)cyclohexyl)oxy)pyridine]
27 | 31.6 | C[S@@+]([O-])Cc1nnc(C2CCC(Oc3ccccn3)CC2)n1-c1ccc(Cl)cc1 (single isomer, unassigned) [Example 39, trans-(+)-2-((4-(4-(4-Chlorophenyl)-5-((methylsulfinyl)methyl)-4H-1,2,4-triazol-3-yl)cyclohexyl)oxy)pyridine]
28 | 2.04 | Cc1nnc([C@H]2CC[C@H](Oc3ccccn3)CC2)n1-c1ccc(F)cc1 [Example 4, trans((4-(4-(4-Fluorophenyl)-5-methyl-4H-1,2,4-triazol-3-yl)cyclohexyl)oxy)pyridine]
29 | 0.575 | CSCCc1nnc([C@H]2CC[C@H](Oc3ccccn3)CC2)n1-c1ccc(Cl)cc1 [Example 46, trans((4-(4-(4-Chlorophenyl)-5-(2-(methylthio)ethyl)-4H-1,2,4-triazol-3-yl)cyclohexyl)oxy)pyridine]
30 | 0.912 | Cc1nnc([C@H]2CC[C@H](Oc3ccccn3)CC2)n1-c1ccc(Cl)cc1 [Example 3, trans(4-(4-(4-Chlorophenyl)-5-methyl-4H-1,2,4-triazol-3-yl)cyclohexyloxy)pyridine]
31 | 20 | CS(=O)(=O)c1nnc([C@H]2CC[C@H](Oc3ccccn3)CC2)n1-c1ccc(Cl)cc1 [Example 48, trans((4-(4-(4-Chlorophenyl)-5-(methylsulfonyl)-4H-1,2,4-triazol-3-yl)cyclohexyl)oxy)pyridine]
32 | 2.14 | CN(C)Cc1nnc([C@H]2CC[C@H](Oc3ccccn3)CC2)n1-c1ccc(Cl)cc1 [Example 43, trans(4-(4-Chlorophenyl)-5-(4-(pyridin-2-yloxy)cyclohexyl)-4H-1,2,4-triazol-3-yl)-N,N-dimethylmethanamine]
33 | 91.2 | C[S@+]([O-])Cc1nnc([C@H]2CC[C@H](Oc3ccccn3)CC2)n1-c1ccc(Cl)cc1 (stereo in doubt) [Example 38, trans-(-)-2-((4-(4-(4-Chlorophenyl)-5-((methylsulfinyl)methyl)-4H-1,2,4-triazol-3-yl)cyclohexyl)oxy)pyridine]
34 | 33.1 | CN(C)CCc1nnc([C@H]2CC[C@H](Oc3ccccn3)CC2)n1-c1ccc(Cl)cc1 [Example 47]
35 | 2.14 | FC(F)(F)c1nnc([C@H]2CC[C@H](Oc3ccccn3)CC2)n1-c1ccc(Cl)cc1 [Example 33, trans((4-(4-(4-Chlorophenyl)-5-(trifluoromethyl)-4H-1,2,4-triazol-3-yl)cyclohexyl)oxy)pyridine]
36 | 0.646 | COc1nnc([C@H]2CC[C@H](Oc3ccccn3)CC2)n1-c1ccc(Cl)cc1 [Example 49, trans((4-(4-(4-Chlorophenyl)-5-methoxy-4H-1,2,4-triazol-3-yl)cyclohexyl)oxy)pyridine]

— patent publication US20230202990A1, “CYCLOHEXYL SUBSTITUTED TRIAZOLES” (Hoffmann-La Roche Inc., priority 2020, published 2023)
